Where two headings read alike, the source gives them in different places.
Tests used:
[1] = 6-week DEXA body composition analysis in DIO mice; format: in vivo, mouse; details: 6 weeks BID dosing
Excerpt: (§1) In the next series of studies (Examples 93-99), Male DIO mice were received at 12 weeks of age (from Taconic), and were single-housed at the testing facility and acclimated for at least 2 weeks. The mice were provided a high fat diet [Research Diet D12492 (60% Fat kcal)] while in the testing facility. Before the study initiation, the animals were randomized into 5 experimental groups by body weight. The vehicle group contained only 0.5% carboxymethylcellulose (medium viscosity)+0.25% Tween-80. The second group contained 10 mg/kg of the DPP-IV inhibitor Sitagliptin while the third group contained 30 mg/kg Compound 268. The fourth group contained the combination of 10 mg/kg Sitagliptin and 30 mg/kg Compound 268. The fifth group was the positive control for weight loss, Rimonabant. All mice were dosed BID at approximately 6:00 am and again at approximately 4:00 pm. The positive control rimonabant was administered at a dose of 10 mg/kg in the afternoon and the morning dosing was vehicle (no compound).
6-Week Dexa Analysis after Multiple Weeks of Dosing Compounds
Compounds of the present invention were dosed for multiple weeks and the mice were analyzed to determine whether weight loss seen in Example 93 was due to a loss in fat or lean mass.
In this example, the protocol from Example 93 was utilized. The day of experiment, the mice were anesthetized using 2.5% avertin [tert-amyl alcohol (Aldrich #15,256-3) and 2,2,2-tribromoethanol (Aldrich # T4, 840-2)]. Their body composition was assessed using the PIXImus2 X-ray unit (GE Lunar Corporation, Madison, Wis.) connected to a computer equipped with LUNAR PIXImus2 software. The head region of each mouse was excluded from the analysis. The following measurements were automatically measured or calculated by the PIXImus2 software: bone mineral density (BMD), bone mineral content (BMC), bone area (B Area), tissue area (T Area), percent fat, and total tissue mass (TTM). Fat mass, the percentage of lean mass, and lean mass, were calculated manually as follows: % Lean=100−% Fat Lean Mass=TTM×(100−% Fat) Fat Mass=TTM×% Fat

[2] = Portal vein versus systemic pharmacokinetics in hepatic portal vein cannulated CD(SD) rats; format: in vivo; details: male, rat, 10 mg/kg oral; for AUC(0-t): read-out: AUC (0→7 h)
Experimental: Low Level of Compounds is Attributed to Low Intestinal Absorption
In this study, we determined if low plasma level of the compounds of the present invention is due to low absorption in the gut, or due to the first pass effect (i.e., absorption followed by a rapid degradation of compounds by liver). Hepatic portal vein cannulated male CD(SD) rats obtained from Charles River Laboratory were utilized. In brief, Compound 268 was administered orally at 10 mg/kg, and the blood was obtained simultaneously from the portal vein and systemic circulation (retro-orbital sinus) at predose, 0.25, 0.5, 1, 2, and 4 hours post-dose, in EDTA coated tubes. The samples were processed into plasma and quantification of compound levels in the plasma was accomplished by means of LC-MS/MS analysis as described in Example 81.

GLP-1 = GLP-1 levels after chronic dosing (5 days) in DIO mice; format: in vivo, mouse; details: 30 mg/kg + sitagliptin 10 mg/kg p.o., after dose 2 and dose 10 (5 days), versus sitagliptin alone
Experimental: GLP-1 Levels after Chronic Dosing of Compounds
The chronic dosing of compounds of the present invention was evaluated to determine if they produce sustained GLP-1 levels.
Male DIO mice were received at 12 weeks of age (from Taconic), and were single-housed at the testing facility and acclimated for at least 2 weeks. The mice were provided a high fat diet [Research Diet D12492 (60% Fat kcal)] while in the testing facility. Before the study initiation, the animals were randomized into 18 experimental groups by body weight. The first 10 groups were administered with sitagliptin alone at 10 mg/kg or sitagliptin (10 mg/kg)+Compound 268 at 30 mg/kg by oral gavage and then again 14 hours later (except for one sitagliptin treated and one sitagliptin+Compound 268 treated groups that were euthanized 14° hours after the first dose). The remaining mice were euthanized at 3, 6, or 9 hours after the second dose to collect blood for GLP-1 measurements and bile weights. The remaining 8 groups were administered by oral gavage with sitagliptin alone at 10 mg/kg or sitagliptin (10 mg/kg)+Compound 268 at 30 mg/kg every 10 or 14 hours for 5 days. […] The active form of GLP-1 [GLP-1 (7-36) amide] was analyzed using Meso Scale Discovery System according to the manufacturer's instruction. […]

[3] = Bile weight after 6 weeks of dosing in DIO mice; format: in vivo, mouse; details: about 6 h after final dose
Excerpt: as §1
No Bile Weight Increase after 6 Weeks of Dosing Compounds
Compounds of the present invention were dosed for multiple weeks and were evaluated to determine if they lead to an increase in bile weight.
In this example, the protocol from Example 93 was utilized. […]

[4] = plasma (portal vein blood), Portal Vein bleed
[5] = plasma (systemic blood), Peripheral bleed (retro-orbital sinus)

Structure (SMILES): N#Cc1ccc(CCNC(=O)[C@@H]2CCN2c2cc(N3CCC(CCNC(=O)NCCC(=O)O)CC3)nc(C(F)(F)F)n2)cc1 [Compound 268, (S)-3-(3-(2-(1-(6-(2-((4-cyanophenethyl)carbamoyl)azetidin-1-yl)-2-(trifluoromethyl)pyrimidin-4-yl)piperidin-4-yl)ethyl)ureido)propanoic acid]
- fat mass versus lean mass (DEXA) [1]: due to a loss in the Fat Mass
- loss in weight / total tissue mass (DEXA) [1]: about the same loss in weight
- Cmax [2, 4]: 15.7 ± 6.7 ng/mL
- Tmax [2, 4]: 15 to 60 min
- AUC(0-t) [2, 4]: 49.1 ± 47.3 ng·h/mL
- Cmax [2, 5]: 43.9 ± 50.2 ng/mL
- Tmax [2, 5]: 15 to 60 min
- AUC(0-t) [2, 5]: 76.2 ± 84.3 ng·h/mL
- plasma GLP-1 level after chronic dosing (GLP-1): significantly increased level of GLP-1
- bile weight / gallbladder size after 6 weeks of dosing [3]: does not show an increase in size
